Measurements as given in ChEMBL document CHEMBL1649265, “Antimicrobial susceptibilities of Mycoplasma genitalium strains examined by broth dilution and quantitative PCR” (2009).
Converted amounts (≈) assume the structure as drawn.

Assays:
Assay type in all cases: functional
[1] = tested on: Mycoplasma genitalium; assay: Antibacterial activity against Mycoplasma genitalium by broth dilution method; details: Mycoplasmoides genitalium; for MIC50: read-out: MIC50; for MIC90: read-out: MIC90
[2] = tested on: Mycoplasma genitalium; assay: Antibacterial activity against Mycoplasma genitalium by quantitative TaqMan PCR method; details: Mycoplasmoides genitalium
[3] = tested on: Mycoplasma genitalium; assay: Antibacterial activity against Mycoplasma genitalium G37 by broth dilution method; details: Mycoplasmoides genitalium, read-out: MIC
[4] = tested on: Mycoplasma genitalium; assay: Antibacterial activity against Mycoplasma genitalium M30 by broth dilution method; details: Mycoplasmoides genitalium, read-out: MIC
[5] = tested on: Mycoplasma genitalium; assay: Antibacterial activity against Mycoplasma genitalium R32 by broth dilution method; details: Mycoplasmoides genitalium, read-out: MIC
[6] = tested on: Mycoplasma genitalium; assay: Antibacterial activity against Mycoplasma genitalium TW10-5G by broth dilution method; details: Mycoplasmoides genitalium, read-out: MIC
[7] = tested on: Mycoplasma genitalium; assay: Antibacterial activity against Mycoplasma genitalium TW10-6G by broth dilution method; details: Mycoplasmoides genitalium, read-out: MIC
[8] = tested on: Mycoplasma genitalium; assay: Antibacterial activity against Mycoplasma genitalium TW48-5G by broth dilution method; details: Mycoplasmoides genitalium, read-out: MIC
[9] = tested on: Mycoplasma genitalium; assay: Antibacterial activity against Mycoplasma genitalium UTMB-10G by broth dilution method; details: Mycoplasmoides genitalium, read-out: MIC
[10] = tested on: Mycoplasma genitalium; assay: Antibacterial activity against Mycoplasma genitalium M2282 by broth dilution method; details: Mycoplasmoides genitalium
[11] = tested on: Mycoplasma genitalium; assay: Antibacterial activity against Mycoplasma genitalium M2300 by broth dilution method; details: Mycoplasmoides genitalium
[12] = tested on: Mycoplasma genitalium; assay: Antibacterial activity against Mycoplasma genitalium M2321 by broth dilution method; details: Mycoplasmoides genitalium
[13] = tested on: Mycoplasma genitalium; assay: Antibacterial activity against Mycoplasma genitalium M2341 by broth dilution method; details: Mycoplasmoides genitalium
[14] = tested on: Mycoplasma genitalium; assay: Antibacterial activity against Mycoplasma genitalium M6257 by broth dilution method; details: Mycoplasmoides genitalium
[15] = tested on: Mycoplasma genitalium; assay: Antibacterial activity against Mycoplasma genitalium M6280 by broth dilution method; details: Mycoplasmoides genitalium
[16] = tested on: Mycoplasma genitalium; assay: Antibacterial activity against Mycoplasma genitalium M6285 by broth dilution method; details: Mycoplasmoides genitalium
[17] = tested on: Mycoplasma genitalium; assay: Antibacterial activity against Mycoplasma genitalium M6286 by broth dilution method; details: Mycoplasmoides genitalium
[18] = tested on: Mycoplasma genitalium; assay: Antibacterial activity against Mycoplasma genitalium M6328 by broth dilution method; details: Mycoplasmoides genitalium
[19] = tested on: Mycoplasma genitalium; assay: Antibacterial activity against Mycoplasma genitalium M6090 by broth dilution method; details: Mycoplasmoides genitalium
[20] = tested on: Mycoplasma genitalium; assay: Antibacterial activity against Mycoplasma genitalium M6151 by broth dilution method; details: Mycoplasmoides genitalium
[21] = tested on: Mycoplasma genitalium; assay: Antibacterial activity against Mycoplasma genitalium M6282 by broth dilution method; details: Mycoplasmoides genitalium
[22] = tested on: Mycoplasma genitalium; assay: Antibacterial activity against Mycoplasma genitalium M6283 by broth dilution method; details: Mycoplasmoides genitalium
[23] = tested on: Mycoplasma genitalium; assay: Antibacterial activity against Mycoplasma genitalium M6284 by broth dilution method; details: Mycoplasmoides genitalium
[24] = tested on: Mycoplasma genitalium; assay: Antibacterial activity against Mycoplasma genitalium M6287 by broth dilution method; details: Mycoplasmoides genitalium

Compound | MIC50 [1] | MIC90 [1] | MIC50 [2] | MIC90 [2] | MIC [3] | MIC [4] | MIC [5] | MIC [6] | MIC [7] | MIC [8] | MIC [9] | MIC [10] | MIC [11] | MIC [12] | MIC [13] | MIC [14] | MIC [15] | MIC [16] | MIC [17] | MIC [18] | further results
COc1c(N2CCNC(C)C2)c(F)cc2c(=O)c(C(=O)O)cn(C3CC3)c12 (centres undefined) [GATIFLOXACIN] | 0.25 µg/mL (≈ 0.666 µM) | 0.25 µg/mL (≈ 0.666 µM) | 0.5 µg/mL (≈ 1.33 µM) | 0.5 µg/mL (≈ 1.33 µM) | 0.125 µg/mL (≈ 0.333 µM) | 0.125 µg/mL (≈ 0.333 µM) | 0.125 µg/mL (≈ 0.333 µM) | 0.125 µg/mL (≈ 0.333 µM) | 0.125 µg/mL (≈ 0.333 µM) | 0.125 µg/mL (≈ 0.333 µM) | 0.125 µg/mL (≈ 0.333 µM) | 0.031 µg/mL (≈ 0.0826 µM) | 0.031 µg/mL (≈ 0.0826 µM) | 0.031 µg/mL (≈ 0.0826 µM) | 0.031 µg/mL (≈ 0.0826 µM) | 0.031 µg/mL (≈ 0.0826 µM) | 0.031 µg/mL (≈ 0.0826 µM) | 0.031 µg/mL (≈ 0.0826 µM) | 0.031 µg/mL (≈ 0.0826 µM) | 0.031 µg/mL (≈ 0.0826 µM) | MIC [19]: 0.031 µg/mL (≈ 0.0826 µM); MIC [20]: 0.031 µg/mL (≈ 0.0826 µM); MIC [21]: 0.031 µg/mL (≈ 0.0826 µM); MIC [22]: 0.031 µg/mL (≈ 0.0826 µM); MIC [23]: 0.031 µg/mL (≈ 0.0826 µM); MIC [24]: 0.031 µg/mL (≈ 0.0826 µM)
C[C@H]1c2cccc(O)c2C(=O)C2=C(O)[C@]3(O)C(=O)C(C(N)=O)=C(O)[C@@H](N(C)C)[C@@H]3[C@@H](O)[C@@H]21.O [DOXYCYCLINE] | 0.125 µg/mL | 0.25 µg/mL | 0.25 µg/mL | 0.5 µg/mL | 0.063 µg/mL | 0.063 µg/mL | 0.063 µg/mL | 0.063 µg/mL | 0.063 µg/mL | 0.063 µg/mL | 0.063 µg/mL | 0.063 µg/mL | 0.063 µg/mL | 0.063 µg/mL | 0.063 µg/mL | 0.063 µg/mL | 0.063 µg/mL | 0.063 µg/mL | 0.063 µg/mL | 0.063 µg/mL | MIC [19]: 0.063 µg/mL; MIC [20]: 0.063 µg/mL; MIC [21]: 0.063 µg/mL; MIC [22]: 0.063 µg/mL; MIC [23]: 0.063 µg/mL; MIC [24]: 0.063 µg/mL
CN(C)[C@@H]1C(O)=C(C(N)=O)C(=O)[C@@]2(O)C(O)=C3C(=O)c4c(O)cccc4[C@@](C)(O)[C@H]3C[C@@H]12 [TETRACYCLINE] | 0.125 µg/mL (≈ 0.281 µM) | 0.5 µg/mL (≈ 1.13 µM) | 0.5 µg/mL (≈ 1.13 µM) | 2 µg/mL (≈ 4.5 µM) | 0.063 µg/mL (≈ 0.142 µM) | 0.063 µg/mL (≈ 0.142 µM) | 0.063 µg/mL (≈ 0.142 µM) | 0.063 µg/mL (≈ 0.142 µM) | 0.063 µg/mL (≈ 0.142 µM) | 0.063 µg/mL (≈ 0.142 µM) | 0.063 µg/mL (≈ 0.142 µM) | 0.063 µg/mL (≈ 0.142 µM) | 0.063 µg/mL (≈ 0.142 µM) | 0.063 µg/mL (≈ 0.142 µM) | 0.063 µg/mL (≈ 0.142 µM) | 0.063 µg/mL (≈ 0.142 µM) | 0.063 µg/mL (≈ 0.142 µM) | 0.063 µg/mL (≈ 0.142 µM) | 0.063 µg/mL (≈ 0.142 µM) | 0.063 µg/mL (≈ 0.142 µM) | MIC [19]: 0.063 µg/mL (≈ 0.142 µM); MIC [20]: 0.063 µg/mL (≈ 0.142 µM); MIC [21]: 0.063 µg/mL (≈ 0.142 µM); MIC [22]: 0.063 µg/mL (≈ 0.142 µM); MIC [23]: 0.063 µg/mL (≈ 0.142 µM); MIC [24]: 0.063 µg/mL (≈ 0.142 µM)
CCn1cc(C(=O)O)c(=O)c2cc(F)c(N3CCNCC3)cc21 [NORFLOXACIN] | 0.032 µg/mL (≈ 0.1 µM) | 0.064 µg/mL (≈ 0.2 µM) | ≥ 8 µg/mL | ≥ 8 µg/mL | 0.032 µg/mL (≈ 0.1 µM) | 0.032 µg/mL (≈ 0.1 µM) | 0.032 µg/mL (≈ 0.1 µM) | 0.032 µg/mL (≈ 0.1 µM) | 0.032 µg/mL (≈ 0.1 µM) | 0.032 µg/mL (≈ 0.1 µM) | 0.032 µg/mL (≈ 0.1 µM) | 0.001 µg/mL (≈ 0.00313 µM) | 0.001 µg/mL (≈ 0.00313 µM) | 0.001 µg/mL (≈ 0.00313 µM) | 0.001 µg/mL (≈ 0.00313 µM) | 0.001 µg/mL (≈ 0.00313 µM) | 0.001 µg/mL (≈ 0.00313 µM) | 0.001 µg/mL (≈ 0.00313 µM) | 0.001 µg/mL (≈ 0.00313 µM) | 0.001 µg/mL (≈ 0.00313 µM) | MIC [19]: 0.001 µg/mL (≈ 0.00313 µM); MIC [20]: 0.001 µg/mL (≈ 0.00313 µM); MIC [21]: 0.001 µg/mL (≈ 0.00313 µM); MIC [22]: 0.001 µg/mL (≈ 0.00313 µM); MIC [23]: 0.001 µg/mL (≈ 0.00313 µM); MIC [24]: 0.001 µg/mL (≈ 0.00313 µM)
